What was measured:
Klebsiella pneumoniae [1] = test: Antibacterial activity against KPC-2 producing multidrug-resistant Klebsiella pneumoniae clinical isolate 15-1 assessed as inhibition of bacterial growth incubated for 18 to 20 hrs by two fold serial dilution assay; type: functional; settings: time 18-20 hrs
Klebsiella pneumoniae [2] = test: Antibacterial activity against KPC-2 producing multidrug-resistant Klebsiella pneumoniae clinical isolate 15-3 assessed as inhibition of bacterial growth incubated for 18 to 20 hrs by two fold serial dilution assay; type: functional; settings: time 18-20 hrs
Pseudomonas aeruginosa [3] = test: Antibacterial activity against IMP-4 producing multidrug-resistant Pseudomonas aeruginosa clinical isolate 17-1 assessed as inhibition of bacterial growth incubated for 18 to 20 hrs by two fold serial dilution assay; type: functional; settings: time 18-20 hrs
Klebsiella pneumoniae [4] = test: Antibacterial activity against Klebsiella pneumoniae ATCC BAA-1898 assessed as inhibition of bacterial growth incubated for 18 to 20 hrs in presence of iron-depleted CAMHB medium by two fold serial dilution assay; type: functional; settings: time 18-20 hrs
Escherichia coli [5] = test: Antibacterial activity against Escherichia coli NCTC-13353 assessed as inhibition of bacterial growth incubated for 18 to 20 hrs in presence of CAMHB medium by two fold serial dilution assay; type: functional; settings: time 18-20 hrs
hERG (KCNH2) = hERG (KCNH2) (Homo sapiens, UniProt Q12809); test: Inhibition of hERG at 40 uM by whole cell Qpatch assay relative to control; type: toxicity
Acinetobacter baumannii [6] = test: Antibacterial activity against OXA-23 producing multidrug-resistant Acinetobacter baumannii clinical isolate 17-7 assessed as inhibition of bacterial growth incubated for 18 to 20 hrs by two fold serial dilution assay; type: functional; settings: time 18-20 hrs
Acinetobacter baumannii [7] = test: Antibacterial activity against OXA-23 producing multidrug-resistant Acinetobacter baumannii clinical isolate 17-5 assessed as inhibition of bacterial growth incubated for 18 to 20 hrs by two fold serial dilution assay; type: functional; settings: time 18-20 hrs
Klebsiella pneumoniae [8] = test: Antibacterial activity against Klebsiella pneumoniae ATCC BAA-1898 assessed as inhibition of bacterial growth incubated for 18 to 20 hrs in presence of CAMHB medium by two fold serial dilution assay; type: functional; settings: time 18-20 hrs
Klebsiella pneumoniae [9] = test: Antibacterial activity against KPC-2 producing multidrug-resistant Klebsiella pneumoniae clinical isolate 15-5 assessed as inhibition of bacterial growth incubated for 18 to 20 hrs by two fold serial dilution assay; type: functional; settings: time 18-20 hrs
[10] = biological target: Voltage-gated inwardly rectifying potassium channel KCNH2 (Homo sapiens, UniProt Q12809); test: Inhibition of hERG by whole cell Qpatch assay; type: toxicity
Acinetobacter baumannii [11] = test: Antibacterial activity against OXA-23 producing multidrug-resistant Acinetobacter baumannii clinical isolate 17-6 assessed as inhibition of bacterial growth incubated for 18 to 20 hrs by two fold serial dilution assay; type: functional; settings: time 18-20 hrs
Escherichia coli [12] = test: Antibacterial activity against ESBL-producing multidrug-resistant Escherichia coli clinical isolate 14-1 assessed as inhibition of bacterial growth incubated for 18 to 20 hrs by two fold serial dilution assay; type: functional; settings: time 18-20 hrs
Pseudomonas aeruginosa [13] = test: Antibacterial activity against IMP-4 producing multidrug-resistant Pseudomonas aeruginosa clinical isolate 17-13 assessed as inhibition of bacterial growth incubated for 18 to 20 hrs by two fold serial dilution assay; type: functional; settings: time 18-20 hrs
Pseudomonas aeruginosa [14] = test: Antibacterial activity against IMP-4 producing multidrug-resistant Pseudomonas aeruginosa clinical isolate 19-1 assessed as inhibition of bacterial growth incubated for 18 to 20 hrs by two fold serial dilution assay; type: functional; settings: time 18-20 hrs
Pseudomonas aeruginosa [15] = test: Antibacterial activity against IMP-4 producing multidrug-resistant Pseudomonas aeruginosa clinical isolate 19-5 assessed as inhibition of bacterial growth incubated for 18 to 20 hrs by two fold serial dilution assay; type: functional; settings: time 18-20 hrs
Klebsiella pneumoniae [16] = test: Antibacterial activity against KPC-2 producing multidrug-resistant Klebsiella pneumoniae clinical isolate 15-2 assessed as inhibition of bacterial growth incubated for 18 to 20 hrs by two fold serial dilution assay; type: functional; settings: time 18-20 hrs
Escherichia coli [17] = test: Antibacterial activity against Escherichia coli ATCC35218 assessed as inhibition of bacterial growth incubated for 18 to 20 hrs by two fold serial dilution assay; type: functional; settings: time 18-20 hrs
Escherichia coli [18] = test: Antibacterial activity against Escherichia coli NCTC-13353 assessed as inhibition of bacterial growth incubated for 18 to 20 hrs in presence of iron-depleted CAMHB medium by two fold serial dilution assay; type: functional; settings: time 18-20 hrs
Escherichia coli [19] = test: Antibacterial activity against ESBL-producing multidrug-resistant Escherichia coli clinical isolate 14-2 assessed as inhibition of bacterial growth incubated for 18 to 20 hrs by two fold serial dilution assay; type: functional; settings: time 18-20 hrs
[20] = Plasma protein binding in mouse incubated for 35 mins by LC-MS/MS analysis; type: ADME, cell-free; settings: read-out: PPB (converted)
Acinetobacter baumannii [21] = test: Antibacterial activity against OXA-23 producing multidrug-resistant Acinetobacter baumannii clinical isolate 17-3 assessed as inhibition of bacterial growth incubated for 18 to 20 hrs by two fold serial dilution assay; type: functional; settings: time 18-20 hrs
Acinetobacter baumannii [22] = test: Antibacterial activity against OXA-23 producing multidrug-resistant Acinetobacter baumannii clinical isolate 17-2 assessed as inhibition of bacterial growth incubated for 18 to 20 hrs by two fold serial dilution assay; type: functional; settings: time 18-20 hrs
Escherichia coli [23] = test: Antibacterial activity against ESBL-producing multidrug-resistant Escherichia coli clinical isolate 14-4 assessed as inhibition of bacterial growth incubated for 18 to 20 hrs by two fold serial dilution assay; type: functional; settings: time 18-20 hrs
Acinetobacter baumannii [24] = test: Antibacterial activity against OXA-23 producing multidrug-resistant Acinetobacter baumannii clinical isolate 17-8 assessed as inhibition of bacterial growth incubated for 18 to 20 hrs by two fold serial dilution assay; type: functional; settings: time 18-20 hrs
[25] = MRT in ICR mouse at 20 mg/kg,iv administration measured upto 6 hrs by LC-MS/MS analysis; type: ADME, organism-based; settings: in vivo
[26] = AUC (0 to infinity) in ICR mouse at 20 mg/kg,iv administration measured upto 6 hrs by LC-MS/MS analysis; type: ADME, organism-based; settings: in vivo
Escherichia coli [27] = test: Antibacterial activity against Escherichia coli ATCC-35218 assessed as inhibition of bacterial growth incubated for 18 to 20 hrs in presence of CAMHB medium by two fold serial dilution assay; type: functional; settings: time 18-20 hrs
Escherichia coli [28] = test: Antibacterial activity against Escherichia coli ATCC-35218 assessed as inhibition of bacterial growth incubated for 18 to 20 hrs in presence of iron-depleted CAMHB medium by two fold serial dilution assay; type: functional; settings: time 18-20 hrs
[29] = Half life in ICR mouse at 20 mg/kg,iv administration measured upto 6 hrs by LC-MS/MS analysis; type: ADME, organism-based; settings: in vivo
Pseudomonas aeruginosa [30] = test: Antibacterial activity against IMP-4 producing multidrug-resistant Pseudomonas aeruginosa clinical isolate 19-17 assessed as inhibition of bacterial growth incubated for 18 to 20 hrs by two fold serial dilution assay; type: functional; settings: time 18-20 hrs
[31] = Volume of distribution at steady state in ICR mouse at 20 mg/kg,iv administration measured upto 6 hrs by LC-MS/MS analysis; type: ADME, organism-based; settings: in vivo, read-out: Vdss
[32] = Clearance in ICR mouse at 20 mg/kg,iv administration measured upto 6 hrs by LC-MS/MS analysis; type: ADME, organism-based; settings: in vivo

Sequence of hERG (KCNH2) (Q12809 whole entry): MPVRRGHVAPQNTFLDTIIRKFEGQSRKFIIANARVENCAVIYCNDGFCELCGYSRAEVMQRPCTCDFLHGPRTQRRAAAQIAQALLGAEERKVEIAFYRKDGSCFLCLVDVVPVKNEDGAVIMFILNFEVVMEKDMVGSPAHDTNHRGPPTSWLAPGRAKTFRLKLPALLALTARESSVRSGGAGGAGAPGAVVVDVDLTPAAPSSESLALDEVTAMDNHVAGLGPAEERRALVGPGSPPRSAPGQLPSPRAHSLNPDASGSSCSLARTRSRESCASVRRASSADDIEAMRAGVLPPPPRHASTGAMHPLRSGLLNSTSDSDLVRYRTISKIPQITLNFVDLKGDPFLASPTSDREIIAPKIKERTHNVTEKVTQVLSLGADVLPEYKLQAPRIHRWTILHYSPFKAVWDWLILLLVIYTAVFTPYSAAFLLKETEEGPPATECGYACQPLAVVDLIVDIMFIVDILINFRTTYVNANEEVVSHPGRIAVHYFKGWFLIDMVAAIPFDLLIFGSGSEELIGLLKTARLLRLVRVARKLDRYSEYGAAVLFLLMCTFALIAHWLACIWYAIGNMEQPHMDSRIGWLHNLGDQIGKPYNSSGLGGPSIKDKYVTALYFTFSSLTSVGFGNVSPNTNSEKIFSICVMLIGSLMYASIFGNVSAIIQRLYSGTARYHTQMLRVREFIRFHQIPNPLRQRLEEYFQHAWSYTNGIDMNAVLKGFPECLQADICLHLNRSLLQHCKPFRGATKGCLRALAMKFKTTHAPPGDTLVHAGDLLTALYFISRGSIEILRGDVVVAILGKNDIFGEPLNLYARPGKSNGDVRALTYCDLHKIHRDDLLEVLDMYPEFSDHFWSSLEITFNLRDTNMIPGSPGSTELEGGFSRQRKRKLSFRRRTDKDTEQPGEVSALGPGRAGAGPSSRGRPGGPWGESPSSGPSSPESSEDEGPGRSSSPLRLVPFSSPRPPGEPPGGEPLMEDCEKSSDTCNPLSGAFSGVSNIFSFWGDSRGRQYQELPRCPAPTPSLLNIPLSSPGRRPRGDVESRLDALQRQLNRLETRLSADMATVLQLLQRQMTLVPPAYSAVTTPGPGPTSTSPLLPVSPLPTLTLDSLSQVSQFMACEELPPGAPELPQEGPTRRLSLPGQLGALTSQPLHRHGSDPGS
Sequence of Voltage-gated inwardly rectifying potassium channel KCNH2 (Q12809 whole entry): as above

Row | SMILES | MIC (Klebsiella pneumoniae [1]) | MIC (Klebsiella pneumoniae [2]) | MIC (Pseudomonas aeruginosa [3]) | MIC (Klebsiella pneumoniae [4]) | MIC (Escherichia coli [5]) | inhibition at 40 µM (hERG (KCNH2)) | MIC (Acinetobacter baumannii [6]) | MIC (Acinetobacter baumannii [7]) | MIC (Klebsiella pneumoniae [8]) | MIC (Klebsiella pneumoniae [9]) | IC50 [10] | MIC (Acinetobacter baumannii [11]) | MIC (Escherichia coli [12]) | MIC (Pseudomonas aeruginosa [13]) | MIC (Pseudomonas aeruginosa [14]) | MIC (Pseudomonas aeruginosa [15]) | MIC (Klebsiella pneumoniae [16]) | MIC (Escherichia coli [17]) | MIC (Escherichia coli [18]) | MIC (Escherichia coli [19]) | other results
1 | C[C@@](O/N=C(\C(=O)N[C@@H]1C(=O)N2C(C(=O)O)=C(CSCCNC(=O)c3ccc(O)c(O)c3Cl)CS[C@H]12)c1nc(N)sc1Cl)(C(=O)O)C(F)(F)F.O=C(O)C(F)(F)F | 0.25 µg/mL | 0.5 µg/mL | 8 µg/mL | 4 µg/mL | 0.5 µg/mL | 40.5% | 0.5 µg/mL | 0.125 µg/mL | 16 µg/mL | 0.125 µg/mL | > 40 µM | 0.5 µg/mL | 0.06 µg/mL | 0.125 µg/mL | 1 µg/mL | 0.25 µg/mL | 0.5 µg/mL | 0.06 µg/mL | 0.25 µg/mL | 0.5 µg/mL | fraction unbound at 35 min [20]: 0.066; MIC (Acinetobacter baumannii [21]): 0.5 µg/mL; MIC (Acinetobacter baumannii [22]): 0.06 µg/mL; MIC (Escherichia coli [23]): ≤ 0.03 µg/mL; MIC (Acinetobacter baumannii [24]): 0.125 µg/mL; MRT [25]: 18 min; AUC(0-inf) [26]: 968 ng·h/mL; MIC (Escherichia coli [27]): 0.5 µg/mL; MIC (Escherichia coli [28]): ≤ 0.03 µg/mL; half-life [29]: 18 min; MIC (Pseudomonas aeruginosa [30]): 0.06 µg/mL; Vd [31]: 7.74 L/kg; clearance [32]: 397 mL/min/kg
2 | Nc1nc(/C(=N/O[C@H](C(=O)O)C2CCC(F)(F)CC2)C(=O)N[C@@H]2C(=O)N3C(C(=O)O)=C(CSCCNC(=O)c4ccc(O)c(O)c4Cl)CS[C@H]23)cs1.O=C(O)C(F)(F)F | 0.25 µg/mL | 0.25 µg/mL | 64 µg/mL | 2 µg/mL | 1 µg/mL | 23.8% | 0.5 µg/mL | 0.25 µg/mL | 8 µg/mL | 1 µg/mL | > 40 µM | 0.5 µg/mL | 0.25 µg/mL | 0.125 µg/mL | 8 µg/mL | 2 µg/mL | 1 µg/mL | 0.125 µg/mL | 1 µg/mL | 1 µg/mL | MIC (Acinetobacter baumannii [21]): 0.5 µg/mL; MIC (Acinetobacter baumannii [22]): 0.5 µg/mL; MIC (Escherichia coli [23]): 0.125 µg/mL; MIC (Acinetobacter baumannii [24]): 1 µg/mL; MIC (Escherichia coli [27]): 2 µg/mL; MIC (Escherichia coli [28]): 0.5 µg/mL; MIC (Pseudomonas aeruginosa [30]): 0.25 µg/mL

From ChEMBL document CHEMBL5543142, “Discovery of YFJ-36: Design, Synthesis, and Antibacterial Activities of Catechol-Conjugated β-Lactams against Gram-Negative Bacteria” (J Med Chem, 2024)
